Data reported in paper PMC8246065 (The EMBO Journal, 2021).

Columns and labels:
[1] = test system: HeLa inducible NOD1 or NOD2 cells; experiment: ELISA of IL6/IL8 in supernatants of HeLa inducible NOD1 or NOD2 cells; assay type: cell-based, human; conditions: for IL6 production upon stressor stimulation: Fig 1A-1D; for IL6 production: lipid 10 µM, Appendix Fig S3E,F; for Effect of inhibitor on IL6 production by cytosolic S1P: inhibitor pretreatment, S1P 10 µM with digitonin (5 µg/ml), Appendix Fig S3A-D; for IL6 production in the presence of dynasore: Fig EV1D,E (S2B-S2E in rebuttal)
Procedure: (§1) To differentiate THP‐1 into macrophage‐like cells, THP‐1 cells were stimulated with 50 ng/ml phorbol 12‐myristate 13‐acetate (Sigma‐Aldrich, P8139) for 24 h and then incubated with fresh medium for another 48 h. […] To induce NOD1 or NOD2 expression, HeLa NOD1 or NOD2 cells were treated with 0.5 µg/ml or 0.25 µg/ml doxycycline for at least 16 h, respectively. All cells have been checked for mycoplasma contamination regularly. Bone marrow‐derived macrophages (BMDMs) were obtained from tibial and femural bones and generated with DMEM containing 20% L929 cell supernatant, 10% FBS, 5% heat‐inactivated horse serum, 1 mM sodium pyruvate, and 2 mM L‐glutamine. For BMDM stimulation experiments, BMDMs were treated with IFN‐γ (20 ng/ml) overnight before stimulation.

NOD1 = target: T1, NOD1 (Homo sapiens, UniProt Q9Y239); experiment: Microscale thermophoresis (MST) binding to purified NOD1-GFP
T1 sequence (Q9Y239 1-953): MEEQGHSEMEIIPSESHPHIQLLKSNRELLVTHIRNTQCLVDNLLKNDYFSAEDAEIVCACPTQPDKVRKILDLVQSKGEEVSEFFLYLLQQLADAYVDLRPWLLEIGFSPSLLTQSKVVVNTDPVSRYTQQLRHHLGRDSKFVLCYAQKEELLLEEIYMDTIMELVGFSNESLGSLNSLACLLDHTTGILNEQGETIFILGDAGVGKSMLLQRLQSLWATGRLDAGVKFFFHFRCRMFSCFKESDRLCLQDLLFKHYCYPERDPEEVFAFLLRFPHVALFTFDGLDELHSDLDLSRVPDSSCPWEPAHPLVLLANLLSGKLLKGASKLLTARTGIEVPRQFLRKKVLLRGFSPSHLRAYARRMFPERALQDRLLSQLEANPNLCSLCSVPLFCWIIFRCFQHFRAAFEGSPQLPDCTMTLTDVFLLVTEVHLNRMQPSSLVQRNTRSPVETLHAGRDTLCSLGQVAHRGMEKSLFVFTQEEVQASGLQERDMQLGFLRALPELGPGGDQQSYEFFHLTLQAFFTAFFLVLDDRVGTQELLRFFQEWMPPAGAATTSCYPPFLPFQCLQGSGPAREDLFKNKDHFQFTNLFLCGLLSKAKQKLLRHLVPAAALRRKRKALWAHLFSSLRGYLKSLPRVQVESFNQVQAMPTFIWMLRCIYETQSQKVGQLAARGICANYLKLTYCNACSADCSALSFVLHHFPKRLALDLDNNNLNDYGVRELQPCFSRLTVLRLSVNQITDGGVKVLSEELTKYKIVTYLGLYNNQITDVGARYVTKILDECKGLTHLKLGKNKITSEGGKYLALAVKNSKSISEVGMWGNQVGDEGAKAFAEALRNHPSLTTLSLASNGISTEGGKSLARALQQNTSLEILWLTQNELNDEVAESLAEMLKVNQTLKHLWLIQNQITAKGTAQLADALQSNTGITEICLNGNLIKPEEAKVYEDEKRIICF
Procedure: (§2) The lysates were incubated with 2 ml GFP‐Trap agarose at 4°C for 4 h. The agarose was collected with Poly‐Prep columns by gravity flow. […] To remove heat shock proteins, columns were further washed with 50 ml wash buffer III (50 mM Tris–HCl, pH 7.5, 150 mM NaCl, 5 mM MgCl2+, 1 mM ATP). To elute the proteins, the agarose was mixed with 2 ml elution buffer (100 mM Glycine, pH 2.5) for 1 min and the eluted proteins were immediately neutralized with 0.2 ml of 1 M Tris, pH 10.5.

NOD2 = NOD2 (Homo sapiens, UniProt Q9HC29); experiment: Microscale thermophoresis (MST) binding to purified NOD2-GFP
Chain of NOD2 (Q9HC29 whole entry): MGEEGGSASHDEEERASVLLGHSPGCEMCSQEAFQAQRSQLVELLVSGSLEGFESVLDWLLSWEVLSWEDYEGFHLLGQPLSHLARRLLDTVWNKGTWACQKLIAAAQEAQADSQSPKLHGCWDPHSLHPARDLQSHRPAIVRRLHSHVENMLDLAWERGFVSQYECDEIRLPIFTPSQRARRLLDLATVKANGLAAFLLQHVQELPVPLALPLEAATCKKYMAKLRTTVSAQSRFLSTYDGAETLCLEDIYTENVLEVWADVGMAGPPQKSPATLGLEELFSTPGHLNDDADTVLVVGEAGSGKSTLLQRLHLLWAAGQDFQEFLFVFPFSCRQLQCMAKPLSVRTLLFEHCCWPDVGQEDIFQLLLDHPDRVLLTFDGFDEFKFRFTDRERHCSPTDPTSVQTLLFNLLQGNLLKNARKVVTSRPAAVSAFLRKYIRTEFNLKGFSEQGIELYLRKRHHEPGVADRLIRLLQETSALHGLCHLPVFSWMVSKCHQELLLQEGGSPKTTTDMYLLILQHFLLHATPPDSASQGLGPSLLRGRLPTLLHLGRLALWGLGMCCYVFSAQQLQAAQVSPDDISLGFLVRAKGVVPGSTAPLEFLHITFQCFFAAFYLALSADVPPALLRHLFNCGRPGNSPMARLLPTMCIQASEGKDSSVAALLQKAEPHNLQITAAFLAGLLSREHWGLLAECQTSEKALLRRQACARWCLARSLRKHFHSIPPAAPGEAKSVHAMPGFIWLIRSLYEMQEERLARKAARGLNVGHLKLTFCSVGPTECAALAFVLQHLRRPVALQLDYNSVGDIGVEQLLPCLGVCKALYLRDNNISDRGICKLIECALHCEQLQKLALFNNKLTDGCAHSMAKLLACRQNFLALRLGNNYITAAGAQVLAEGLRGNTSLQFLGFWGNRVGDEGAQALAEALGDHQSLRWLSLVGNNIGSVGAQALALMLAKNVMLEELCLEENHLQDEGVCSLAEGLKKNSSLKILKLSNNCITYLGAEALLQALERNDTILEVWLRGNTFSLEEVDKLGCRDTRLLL
Procedure: as §2

[2] = test system: HEK293T NOD1/2 KO cells transfected with NOD1 or NOD2 mutants; experiment: IL8 ELISA of HEK293T cells transfected with NOD1/NOD2 mutants; assay type: cell-based, human; conditions: for IL8 production in cells expressing LRR-deficient NOD1/2 (NOD1/2∆LRR): 20 µM with digitonin, 20 h
Procedure: as §1
The mutagenesis was performed with Q5® site‐directed mutagenesis kit (E0554, NEB) according to the manufacturer's instructions. The primers used in this study were as follows: NOD1 E157A F: 5′‐[…]gcg[…]‐3′, NOD1 E157A R: 5′‐[…]‐3′, NOD1 D161A F: 5′‐[…]gcg[…]‐3′, NOD1 D161A R: 5′‐[…]‐3′, NOD1 D203A F: 5′‐[…]gcg[…]‐3′, D203A R: 5′‐[…]‐3′, L218A F: 5′‐[…]gcg[…]‐3′, L218A R: 5′‐[…]‐3′, R237A F: 5′‐[…]gcg[…]‐3′, R237A R: 5′‐[…]‐3′, H257A F: 5′‐[…]gcg[…]‐3′, H257A R: 5′‐[…]‐3′, E267A F: 5′‐[…]gcg[…]‐3′, E267A R: 5′‐[…]‐3′, H290A F: 5′‐[…]gcg[…]‐3′, H290A R: 5′‐[…]‐3′, E306A F: 5′‐[…]gcg[…]‐3′, E306A R: 5′‐[…]‐3′, K324A F: 5′‐[…]gcg[…]‐3′, K324A R: 5′‐[…]‐3′, K328A F: 5′‐[…]gcg[…]‐3′, K328A R: 5′‐[…]‐3′, R340A F: 5′‐[…]gcg[…]‐3′, R340A R: 5′‐[…]‐3′, R344A F: 5′‐[…]gcg[…]‐3′, R344A R: 5′‐[…]‐3′, R350A F: 5′‐[…]gcg[…]‐3′, R350A R: 5′‐[…]‐3′, D372A F: 5′‐[…]gcg[…]‐3′, D372A R: 5′‐[…]‐3′, R373A F: 5′‐[…]gcg[…]‐3′, R373A R: 5′‐[…]‐3′, R399A F: 5′‐[…]gcg[…]‐3′, R399A R: 5′‐[…]‐3′, D423A F: 5′‐[…]gcg[…]‐3′, D423A R: 5′‐[…]‐3′, R435A F: 5′‐5′‐[…]gcg[…]‐3′, R435A R: 5′‐[…]‐3′, Q484A F: 5′‐[…]gcg[…]‐3′, Q484A R: 5′‐[…]‐3′, L495A F: 5′‐[…]gcg[…]‐3′, L495A R: 5′‐[…]‐3′, E514A F: 5′‐[…]gcg[…]‐3′, E514A R: 5′‐[…]‐3′, H517A F: 5′‐[…]gcg[…]‐3′, H517A R: 5′‐[…]‐3′, L540A F: 5′‐[…]gcg[…]‐3′, L540A R: 5′‐[…]‐3′, F544A F: 5′‐[…]gcg[…]‐3′, and F544A R: 5′‐[…]‐3′.

Row | Compound | Effect of inhibitor on IL6 production by cytosolic S1P [1] | IL6 production in the presence of dynasore ([1]; Dynasore 50 µM) | also measured
1 | C[C@H]1CCC/C=C/[C@@H]2C[C@H](O)C[C@H]2[C@H](O)/C=C/C(=O)O1 [BFA, brefeldin A] | – | – | IL6 production upon stressor stimulation [1]: did not induce IL6 production
2 | CCCCCCCCCCCCC/C=C/[C@@H](O)[C@H](CO)NC(C)=O [C2 ceramide] | – | – | IL6 production [1]: did not induce IL6 production
3 | CCCCCCCCCCCCC/C=C/[C@@H](O)[C@H](CO)NC(=O)CCCCCCCCCCCCCCC [C16 ceramide] | – | – | Interaction with NOD1 by MST (NOD1; Fig EV5B): not detected; Interaction with NOD2 by MST (NOD2; Fig EV5C): not detected; IL6 production [1]: did not induce IL6 production
4 | Cc1cc(CN)cc(C)c1NC(=O)c1ccc(-c2cc(Cl)ccc2Cl)o1 [CYM50358] | failed to block | – | –
5 | O=C(N/N=C/c1ccc(O)c(O)c1)c1cc2ccccc2cc1O [Dynasore] | – | – | Effect of endocytosis inhibition on IL6 production in response to stress stimulations ([1]; Dynasore 50 µM): not blocked
6 | CCCCCCCCc1ccc(CCC(N)(CO)CO)cc1 [FTY720] | failed to block | – | –
7 | CC(C)(C)S(=O)(=O)c1ccc2nccc(Nc3n[nH]c4ccc(F)cc34)c2c1 [GSK583] | abolished | – | –
8 | Cc1nn(C)c2nc(NNC(=O)Nc3c(Cl)cncc3Cl)cc(C(C)C)c12 [JTE013] | failed to block | – | –
9 | CC(=O)N[C@@H]1[C@@H](O[C@H](C)C(=O)N[C@@H](C)C(=O)N[C@H](CCC(=O)O)C(N)=O)[C@H](O)[C@@H](CO)O[C@H]1O [MDP] | – | impaired | Binding affinity of NOD2 for MDP in the presence or absence of S1P (NOD2; Fig 6H, S1P 2 µM): not affected; IL8 production in cells expressing LRR-deficient NOD1/2 (NOD1/2∆LRR) [2]: not; IL8 production / activation in HEK293T cells expressing NOD2 1007fs ([2]; 20 µM, 48 h, digitonin): unresponsive
10 | CC(=O)c1ncc([C@@H](O)[C@H](O)[C@H](O)CO)[nH]1 [THI] | higher IL6 production | – | –
11 | CCCCCCCCc1cccc(NC(=O)[C@H](N)COP(=O)(O)O)c1 [VPC23019] | failed to block | – | –
12 | CCCCCCc1cccc(NC(=O)[C@H](N)CCP(=O)(O)O)c1 [W146] | failed to block | – | –
13 | CCCCC[C@H](CC(=O)NO)C(=O)N[C@H](C(=O)N1CCC[C@H]1CO)C(C)C [actinonin] | – | higher IL6 production | –
14 | C=C1[C@@H](C)[C@H]2[C@H](Cc3ccccc3)NC(=O)[C@]23[C@H](OC(C)=O)/C=C/[C@@](C)(O)C(=O)[C@@H](C)C/C=C/[C@H]3[C@@H]1O [cytochalasin D] | – | higher IL6 production | –
15 | N[C@H](CCC(=O)N[C@H](CCC[C@H](N)C(=O)O)C(=O)O)C(=O)O [iE-DAP] | – | impaired | Binding affinity of NOD1 for iE-DAP in the presence or absence of S1P (NOD1; Fig 6G, S1P 2 µM): not affected; IL8 production in cells expressing LRR-deficient NOD1/2 (NOD1/2∆LRR) [2]: not; Activation (IL8) of NOD1 K328A or H517A ([2]; Fig EV5H): activated
16 | CC[C@@]1([C@@H]2O[C@@H]([C@H]3O[C@@](O)(CO)[C@H](C)C[C@@H]3C)C[C@@H]2C)CC[C@H]([C@]2(C)CC[C@]3(C[C@H](O)[C@@H](C)[C@@H]([C@@H](C)[C@@H](OC)[C@H](C)C(=O)O)O3)O2)O1 [monensin] | – | – | IL6 production upon stressor stimulation [1]: did not induce IL6 production
17 | COC(=O)Nc1nc2ccc(C(=O)c3cccs3)cc2[nH]1 [nocodazole] | – | higher IL6 production | –
18 | CC(=O)O[C@H]1C(=O)[C@@]2(C)[C@H]([C@H](OC(=O)c3ccccc3)[C@]3(O)C[C@H](OC(=O)[C@H](O)[C@@H](NC(=O)c4ccccc4)c4ccccc4)C(C)=C1C3(C)C)[C@]1(OC(C)=O)CO[C@@H]1C[C@@H]2O [paclitaxel] | – | higher IL6 production | –
19 | CCCCCCCCCCCCC/C=C/[C@@H](O)[C@@H](N)CO [sphingosine] | – | – | IL6 production [1]: did not induce IL6 production
20 | pertussis toxin | failed to block | – | –
